The values that follow come from patent US8067442B2, “Heterocyclic antiviral compounds” (Roche Palo Alto LLC, priority 2008, dated 2011).

One may read the IC50 as the midpoint of a concentration-inhibition curve. The low end stands for greater potency in that assay, the high end for weaker potency in that assay. What is called melting point is the temperature, or range, at which the solid turns liquid.

Some results are limits rather than exact numbers.

Series [1] addresses T1, HCV polymerase (NS5B570n-Con1) (Hepatitis C virus genotype 1b, UniProt Q9WMX2).
T1 construct: a 21 amino acid C-terminal deletion of full-length HCV polymerase; made in house; host or cells: E. coli BL21(DE3) pLysS, plasmid pET17b
The series can be described thus: biochemical. More on the design: species or system HCV Con1 strain. How it is done:
The enzymatic activity of HCV polymerase (NS5B570n-Con1) was measured as the incorporation of radiolabeled nucleotide monophosphates into acid insoluble RNA products. Unincorporated radiolabeled substrate was removed by filtration and scintillant was added to the washed and dried filter plate containing radiolabeled RNA product. The amount of RNA product generated by NS5B570n-Con1 at the end of the reaction was directly proportional to the amount of light emitted by the scintillant.
The HCV polymerase used in the enzymatic activity assay is a 21 amino acid C-terminal deletion of full-length HCV polymerase derived from HCV Con1 strain, genotype 1b (GenBank accession number AJ242654) (NS5B570n-Con1). The NS5B570n-Con1 was sub-cloned downstream to the T7 promoter of the plasmid expression construct pET17b and transformed into E. coli strain BL21(DE3) pLysS for protein expression. A single colony was used to start an innoculum for a 10 L culture in LB media supplemented with 100 μg/mL ampicillin at 37° C. Protein expression was induced by the addition of 0.25 mM isopropyl-β-D-thiogalactopyranoside (IPTG) when the optical density of the culture at […] was 0.8. Induction of protein expression was carried out at 30° C. for 16 h after which the cells were harvested by centrifugation. NS5B570n-Con1 was purified to homogeneity using a three-column purification protocol including subsequent column chromatography on Ni-NTA, SP-Sepharose HP and Superdex 75 resins.
Enzymatic reactions in the presence of cIRES RNA template (see section [0300]) contained 20 nM cIRES RNA, 20 nM NS5B570n-Con1 enzyme, 0.5 μCi of tritiated UTP (Perkin Elmer catalog no. TRK-412; specific activity: 30 to 60 Ci/mmol), 1 μM each ATP, CTP, and GTP, 40 mM Tris-HCl pH 8.0, 40 mM NaCl, 4 mM DTT (dithiothreitol), 4 mM MgCl2, 5 μl of compound serial diluted in DMSO, and nuclease-free water to a final reaction volume of 50 μl. Enzymatic reactions in the presence of 20 nM cIRES template, 20 nM NS5B570n-Con1 enzyme, 1 μCi of tritiated UTP (Perkin Elmer catalog no. TRK-412; specific activity: 30 to 60 Ci/mmol), 40 mM Tris-HCl pH 8.0, 40 mM NaCl, 4 mM DTT (dithiothreitol), 4 mM MgCl2, 5 μl of compound serial diluted in DMSO, and nuclease-free water to a final reaction volume of 50 μl. Reaction mixtures were assembled in 96-well filter plates (cat #MADVNOB, Millipore Co.) and incubated for 2 h at 30° C. Reactions were stopped by addition of 10% final (v/v) trichloroacetic acid and incubated for 40 min at 4° C. Reactions were filtered, washed with 8 reaction volumes of 10% (v/v) trichloroacetic acetic acid, 4 reaction volumes of 70% (v/v) ethanol, air dried, and 25 μl of scintillant (Microscint 20, Perkin-Elmer) was added to each reaction well.
Two RNA templates can be used to assay compounds described herein. The cIRES RNA template is 377 nucleotide long and consisting of a partial complementary sequence (36 nucleotides) of the core protein, followed by 341 nucleotide of the complementary sequence of the internal ribosome entry site. The poly A RNA template (GE Amersham catalog number 27-4110) was a homopolymeric RNA pre-annealed to a oligo(rU)16 primer at a molar ratio of 3-to-1 (primer-template). The cIRES template was used in the assay unless otherwise noted.
The amount of light emitted from the scintillant was converted to counts per minute (CPM) on a Topcount® plate reader (Perkin-Elmer, Energy Range: Low, Efficiency Mode Normal, Count Time: 1 min, Background Subtract: none, Cross talk reduction: Off).
Data was analyzed in Excel® (Microsoft®) and ActivityBase® (Idbs®). The reaction in the absence of enzyme was used to determine the background signal, which was subtracted from the enzymatic reactions. […] All data was expressed as a percentage of the positive control. The compound concentration at which the enzyme-catalyzed rate of RNA synthesis was reduced by 50% (IC50) was calculated by fitting

As to `CC(C)(C)c1cc(-c2ccc[nH]c2=O)cc2c(-c3ccc(NS(C)(=O)=O)cc3)coc12` [Compound I-79, N-{4-[7-tert-Butyl-5-(2-oxo-1,2-dihydro-pyridin-3-yl)-benzofuran-3-yl]-phenyl}-methanesulfonamide], the melting point fell in the range of 182 to 184 °C. Further, in series [1], the midpoint of inhibition, the IC50, lay at 27 nM.

`CC(C)(C)c1cc(-c2ccc[nH]c2=O)cc2c(C(=O)c3ccccc3)coc12` [Compound I-20]: the melting point is 271 to 272 °C. In series [1], the IC50 turned out to be 49 nM.

In turn, `Cn1cc(C(N)=O)c2cc(-c3ccc[nH]c3=O)cc(C(C)(C)C)c21` [Compound I-112] came in with a melting point of 232 to 234 °C. This compound also displayed a half-inhibitory concentration (IC50) in series [1] of 778 nM.

`CC(=O)Nc1ccc(-c2coc3c(C(C)(C)C)cc(-c4ccc[nH]c4=O)cc23)cc1` [Compound I-80] showed a melting point of more than 300 °C. In addition, the half-inhibitory concentration (IC50) in series [1] was found to be 64 nM.

`Cn1cc(C(=O)N2CC[C@H](CNS(C)(=O)=O)C2)c2cc(-c3ccc[nH]c3=O)cc(C(C)(C)C)c21` [Compound I-111, N-{(S)-1-[7-tert-Butyl-1-methyl-5-(2-oxo-1,2-dihydro-pyridin-3-yl)-1H-indole-3-carbonyl]-pyrrolidin-3-ylmethyl}-methanesulfonamide] showed a melting point of 168 to 170 °C. The IC50 in series [1] was 8 nM.

On to `CC(C)(C)c1cc(-c2ncc[nH]c2=O)cc2c(C(=O)N3CCCC(CNS(C)(=O)=O)C3)coc12` (stereo not drawn) [Compound 102, N-{1-[7-tert-Butyl-5-(3-oxo-3,4-dihydro-pyrazin-2-yl)-benzofuran-3-carbonyl]-piperidin-3-ylmethyl}-methanesulfonamide], for which the melting point lay within 172 to 174 °C. In series [1], this compound came in with a concentration for half-maximal inhibition (IC50) of 8 nM.

In turn, `CC(C)S(=O)(=O)NC[C@H]1CCN(C(=O)c2coc3c(C(C)(C)C)cc(-c4ccc[nH]c4=O)cc23)C1` [Compound I-108] registered a melting point of 163 to 165 °C. In series [1], this compound yielded an IC50 of 25 nM.

`CC(C)(C)c1cc(-c2ccc[nH]c2=O)cc2c(-c3ccc(C(N)=O)cc3)coc12` [Compound I-87] returned a melting point of 282 to 284 °C. In addition, in series [1], half-maximal inhibition (IC50) required 2 nM.

Turning to `COc1cccc(-c2coc3c(C(C)(C)C)cc(-c4ccc[nH]c4=O)cc23)c1` [Compound I-33], the melting point was 204 to 205 °C. This compound returned an IC50 in series [1] of 14 nM.

As to `CC(C)(C)c1cc(-c2ccc[nH]c2=O)cc2c(-c3cccc(CNS(C)(=O)=O)c3)coc12` [Compound I-81], the melting point was in the range of 130 to 133 °C. Also, it took 175 nM to reach half-maximal inhibition in series [1] (IC50).

In turn, `CC(C)(C)c1cc(-c2ccc[nH]c2=O)cc2c(C(=O)N3CCC(NS(C)(=O)=O)CC3)coc12` [Compound I-99] came in with a melting point of 193 to 195 °C. In addition, in series [1], the half-maximal inhibitory concentration (IC50) amounted to 876 nM.

On to `CC(C)(C)c1cc(-c2ccc[nH]c2=O)cc2c(C(=O)Nc3cccc(CNS(C)(=O)=O)c3)coc12` [Compound I-85], for which the melting point is 237 to 239 °C. This compound gave a 50% inhibitory concentration (IC50) in series [1] of 741 nM.

For `CC(C)(C)c1cc(-c2ccc[nH]c2=O)cc2c(C(=O)N3CCC[C@@H](N)C3)coc12` [Compound I-42], the melting point lay within 254.9 to 258.1 °C. Also, the 50% inhibitory concentration (IC50) in series [1] is 549 nM.

The compound `Cc1ccc(-c2coc3c(C(C)(C)C)cc(-c4ccc[nH]c4=O)cc23)nc1` [Compound I-91, 3-[7-tert-Butyl-3-(5-methyl-pyridin-2-yl)-benzofuran-5-yl]-1H-pyridin-2-one] displayed a melting point of 295 to 297 °C. This compound displayed a 50% inhibitory concentration (IC50) in series [1] of 326 nM.

`CC(C)(C)c1cc(-c2ccc[nH]c2=O)cc2c(C(=O)N3CC[C@H](CNS(=O)(=O)C4CC4)C3)coc12` [Compound I-107]: the melting point fell in the range of 158 to 160 °C. Besides, the IC50 in series [1] worked out at 17 nM.

The compound `CC(C)(C)c1cc(-c2ccc[nH]c2=O)cc2c(CC#N)coc12` [Compound I-5, [7-tert-Butyl-5-(2-oxo-1,2-dihydro-pyridin-3-yl)-benzofuran-3-yl]-acetonitrile] gave a melting point of 231 to 232 °C. Also, the IC50 in series [1] is 330 nM.

On to `CC(C)(C)c1cc(-c2ccc[nH]c2=O)cc2c(C(=O)N3CCNCC3)coc12` [Compound I-28], for which 1940 nM corresponded to half-maximal inhibition in series [1] (IC50).

In series [1], `CC(C)(C)c1cc(-c2ccc[nH]c2=O)cc2c(C(=O)N3CCC(NC(=O)C(F)(F)F)CC3)coc12` [Compound I-55] showed an IC50 of 2280 nM.

`COC(=O)[C@@H]1C[C@@H](O)CN1C(=O)c1coc2c(C(C)(C)C)cc(-c3ccc[nH]c3=O)cc12` [Compound I-63] displayed a half-maximal inhibitory concentration (IC50) in series [1] of 1610 nM.

For the compound `CC(C)(C)c1cc(-c2ccc[nH]c2=O)cc2c(C(=O)N3CCCC(O)C3)coc12` (stereo not drawn) [Compound I-27], the IC50 in series [1] worked out at 186 nM.

The compound `CC(=O)N1CCN(C(=O)c2coc3c(C(C)(C)C)cc(-c4ccc[nH]c4=O)cc23)CC1` [Compound I-52] came in with an IC50 in series [1] of 1250 nM.

`CC(C)CNC(=O)c1coc2c(C(C)(C)C)cc(-c3ccc[nH]c3=O)cc12` [Compound I-10] came in with a concentration for half-maximal inhibition (IC50) in series [1] of 404 nM.

In series [1], `CC(C)(C)c1cc(-c2ccc[nH]c2=O)cc2c(C(=O)N3CCC(O)CC3)coc12` [Compound I-12] showed an IC50 of 63 nM.

For `CC(C)(C)c1cc(-c2ccc[nH]c2=O)cc2c(C(=O)N3CCC(O)C3)coc12` (stereo not drawn) [Compound I-65], the 50% inhibitory concentration (IC50) in series [1] was found to be 126 nM.

Turning to `CC1(C)CCCN(C(=O)c2coc3c(C(C)(C)C)cc(-c4ccc[nH]c4=O)cc23)C1` [Compound I-69], in series [1], the IC50 amounted to 831 nM.

For `CCNC1(C(N)=O)CCN(C(=O)c2coc3c(C(C)(C)C)cc(-c4ccc[nH]c4=O)cc23)CC1` [Compound I-66], 134 nM corresponded to half-maximal inhibition in series [1] (IC50).

As for `CC(C)(C)c1cc(-c2ccc[nH]c2=O)cc2c(C(=O)N3CCCC(CCS(C)(=O)=O)C3)coc12` (stereo not drawn) [Compound 132, 3-{7-tert-Butyl-3-[3-(2-methanesulfonyl-ethyl)-piperidine-1-carbonyl]-benzofuran-5-yl}-1H-pyridin-2-one], in series [1], inhibition was half-maximal at 29 nM (IC50).

As for `CC(C)(C)c1cc(-c2ccc[nH]c2=O)cc2c(CO)coc12` [Compound I-8], in series [1], the concentration for half-maximal inhibition (IC50) turned out to be 515 nM.

Compound `CC(C)(C)c1cc(-c2ccc[nH]c2=O)cc2c(C(=O)N3CCC[C@@H](CNS(C)(=O)=O)C3)coc12` [Compound I-101] displayed a half-inhibitory concentration (IC50) in series [1] of 9 nM.

In series [1], `CC(=O)NC[C@H]1CCN(C(=O)c2coc3c(C(C)(C)C)cc(-c4ccc[nH]c4=O)cc23)C1` [Compound I-75] yielded an IC50 of 197 nM.

`CC(C)(C)c1cc(-c2ccc[nH]c2=O)cc2c(C(=O)N3CCCC(CO)C3)coc12` (stereo not drawn) [Compound I-14] displayed a half-maximal inhibitory concentration (IC50) in series [1] of 66 nM.

Turning to `CC(C)(C)c1cc(-c2ccc[nH]c2=O)cc2c(C(=O)N3CCC[C@H]3CO)coc12` [Compound I-17], the IC50 in series [1] stood at 112 nM.

In turn, `CC(C)CN(C)C(=O)c1coc2c(C(C)(C)C)cc(-c3ccc[nH]c3=O)cc12` [Compound I-11] had an IC50 in series [1] of 475 nM.

The compound `CC(C)(C)c1cc(-c2ccc[nH]c2=O)cc2c(-c3ccc(C#N)cc3)coc12` [Compound I-35] displayed an IC50 in series [1] of 72 nM.

In the case of `CC(C)(C)c1cc(-c2ccc[nH]c2=O)cc2c(C(=O)N3CCC(F)(F)CC3)coc12` [Compound I-68], the half-maximal inhibitory concentration (IC50) in series [1] came to 597 nM.
